Experimental data from patent US8852657B2, “Chromones as therapeutic agents” (Unigen, Inc., priority 2007, dated 2014).

Key:
[1] = system: db/db mice; assay: Weekly fasting triglyceride levels in db/db mice; type: in vivo, mouse; details: after 10 weeks of treatment, P<0.05
Procedure: Weekly fasting triglyceride levels of male db/db mice treated with GW1929 (5 mg/kg), N-931 (375 mg/kg) and vehicle were taken for 10 weeks. Animals were provided with T2018 rodent diet ad libitum except when fasting. Animals were fasted overnight before measurements were taken. The values indicated are percent triglyceride levels of vehicle, n=8.

[2] = system: high fat diet induced C57BL/6J mice; assay: Intraperitoneal insulin tolerance test, UP780 dose-range study; type: in vivo, mouse; details: after 10 weeks of daily oral treatment; P≦0.05
Procedure: Once an induction of the disease on animals after 8 weeks of high fat diets was confirmed by monitoring of selected parameters, daily oral treatment was initiated. On each day, the test articles and the positive control GW1929 (Tocris Bioscience, Ellisville, Mo., Batch #2A/58705) were dissolved in 0.5% methylcellulose (Sigma, St. Louise Mo., Lot#116H0857) and delivered at an oral dose of 100, 200 and 400 mg/kg of UP780 (Lot # L1806QMAW-01); 400 mg/kg of Qmatrix® Aloe vera gel powder (QM400, Lot# G6319103-L3) as well as 5 mg/kg of GW1929. As GW1929 was not completely solublized in methylcellulose, it was first dissolved in DMSO (Sigma, St. Louis, Mo., Batch#064K0067). The final concentration of test compounds, including the vehicle, was then adjusted to contain 5% DMSO before drug administration. The carrier vehicle treated animals received 0.5% methylcellulose only. No detectable sign of irritation was observed after each drug or vehicle administration. […]
An intraperitoneal glucose tolerance test was conducted on day 0 (baseline), weeks 3, and 9 after onset of treatment. […] Blood glucose levels were determined at time 0 (before glucose injection), 30, 60, 90, and 120 minutes post glucose delivery. […] Blood glucose levels were determined at time 0 (before insulin injection), 30, 60, 90, and 120 minutes after insulin administration. […]

[3] = system: diabetic animal models; details: administered orally; Brown et al. (1999), Way et al. (2001); cited from earlier work
[4] = Feed consumption, UP780 dose-range study; type: in vivo, mouse; details: GW1929 5 mg/kg, Qmatrix 400 mg/kg, UP780 100, 200 and 400 mg/kg
Procedure: (§1) Once an induction of the disease on animals after 8 weeks of high fat diets was confirmed by monitoring of selected parameters, daily oral treatment was initiated. On each day, the test articles and the positive control GW1929 (Tocris Bioscience, Ellisville, Mo., Batch #2A/58705) were dissolved in 0.5% methylcellulose (Sigma, St. Louise Mo., Lot#116H0857) and delivered at an oral dose of 100, 200 and 400 mg/kg of UP780 (Lot # L1806QMAW-01); 400 mg/kg of Qmatrix® Aloe vera gel powder (QM400, Lot# G6319103-L3) as well as 5 mg/kg of GW1929. As GW1929 was not completely solublized in methylcellulose, it was first dissolved in DMSO (Sigma, St. Louis, Mo., Batch#064K0067). The final concentration of test compounds, including the vehicle, was then adjusted to contain 5% DMSO before drug administration. The carrier vehicle treated animals received 0.5% methylcellulose only. No detectable sign of irritation was observed after each drug or vehicle administration.
(§2) As described on Example 12, male C57BL/6J mice were purchased from Jackson Laboratories (Bar Harbor, Me.) at 6 weeks of age. […]
Three or four male C57BL/6J mice were housed in a mouse cage that had sections for feed and water. Feed intake was determined daily by measuring the difference between previously weighed high fat pellets value and what was left on the given day. […]

[5] = system: high fat diet induced C57BL/6J mice; assay: Fasting blood glucose, UP780 dose-range study; type: in vivo, mouse; details: weeks 5 and 7; UP780 200 mg/kg, GW1929 5 mg/kg
Procedure: as §1, §2
Fasting blood glucose, total cholesterol and triglyceride levels were measured using 15-20 μl of blood obtained from tail vein. […]

SMILES: CN(CCOc1ccc(C[C@H](Nc2ccccc2C(=O)c2ccccc2)C(=O)O)cc1)c1ccccn1 [GW1929, N-(2-Benzoylphenyl)-O-[2-(methyl-2-pyridinylamino)ethyl]-L-tyrosine]
- fasting triglyceride levels compared to vehicle [1]: significant reduction in triglyceride levels
- reduction of triglycerides ([1]; N931 375 mg/kg, GW1929 5 mg/kg): 43%
- significant differences in intraperitoneal insulin tolerance test vs vehicle [2]: after 1 hour insulin injection
- glucose, fatty acids and triglyceride levels [3]: decreases glucose, fatty acids and triglyceride levels
- feed consumption difference between groups [4]: no significant body weight gain or feed consumption differences
- fasting glucose level compared to vehicle [5]: statistically significant lower fasting glucose level
